This assay addresses T1, Androgen receptor [646-919] (Human, UniProt P10275).
T1 construct: 646-919
T1 sequence (P10275 whole entry): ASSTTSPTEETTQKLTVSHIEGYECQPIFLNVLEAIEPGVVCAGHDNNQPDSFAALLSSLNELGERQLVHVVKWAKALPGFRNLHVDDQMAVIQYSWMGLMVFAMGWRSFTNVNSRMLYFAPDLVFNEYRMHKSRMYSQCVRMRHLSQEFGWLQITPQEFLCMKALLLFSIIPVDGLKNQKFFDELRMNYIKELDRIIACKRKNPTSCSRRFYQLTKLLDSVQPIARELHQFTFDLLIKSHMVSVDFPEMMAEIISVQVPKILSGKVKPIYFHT
The assay can be described thus: Fluorescence Polarization Assay. The note with it: pH 6.5. On the procedure: For the fluorescence polarization experiments, 5 nM fluorescently labeled Bag-1L (Bag-1L(1-20), fluorescein isothiocyanate (FITC)-[…]; Bag-1L(61-80), FITC-[…]) or SRC-2 peptide (FITC-[…]) was incubated with serially diluted AR-LBD (4 to 0.4 μM) in binding buffer (50 mM NaPO4, pH 6.5, 50 mM KCl, 1 mM DTT) and 10 μM DHT. The samples were then equilibrated for 45 min at ambient temperature. For the competition experiments, 400 to 0.4 nM Bag-1L core (GARRPR) or SRC-2 peptides ([…]) were incubated with 4 μM AR-LBD and 5 nM fluorescent Bag-1 or SRC-2 peptide. Binding was measured using polarization (excitation λ = 485 nm, emission λ = 530 nm) on a Synergy H1 hybrid reader (Biotek).
For orientation: Fluorescence polarisation rises when a labelled molecule tumbles more slowly, as on binding a larger partner.
For H-HDSKGQTKLLQLLTTKSDQM-OH, the Kd stood at 2800 nM.

Take “H-MAQRGGARRPRGDRERLGSR-OH [Bag-1L (1-20)]”: the Kd was 2000 nM.

Regarding “H-RGAAAGARRPRMKKKTRRRS-OH [Bag-1L (61-80)]”, the Kd was 3300 nM.

Usually Kd stands for a measure of binding affinity in units of concentration.

Source of the values: BindingDB's records for doi:10.1074/jbc.M113.534859 (Karlsruhe Institute of Technology, 2014).
